According to the OligoGym collection:
Oligonucleotides are written 5' to 3', each unit as a sugar letter and its base; * is a phosphorothioate linkage, no mark a phosphodiester; rarer units and linkages stand in square brackets, end groups in braces. Plain capitals give the bases only. d = 2'-deoxy (DNA); r = 2'-OH (RNA)

molecular target: UFC1; assay: reporter assay of Huesken 2005; details: siRNA
Note: test concentration or dose not given here.

First: sense rGrArArUrGrUrGrCrCrCrArArArUrUrUrGrGrAdTdT / antisense rUrCrCrArArArUrUrUrGrGrGrCrArCrArUrUrCdCdT
Second: sense rArUrCrUrCrArUrGrGrCrUrCrUrGrGrGrGrCrUdTdT / antisense rArGrCrCrCrCrArGrArGrCrCrArUrGrArGrArUdGdA
The normalised inhibition (eCFP-eYFP dual reporter) of the first is higher: 67.9% for the first, 53.8% for the second.

Compared with “sense rArArGrGrArArCrUrCrGrGrUrGrGrUrUrUrGrGdTdT / antisense rCrCrArArArCrCrArCrCrGrArGrUrUrCrCrUrUdCdC”, “sense rUrGrArCrArUrUrCrCrUrArUrCrArCrArUrArUdTdT / antisense rArUrArUrGrUrGrArUrArGrGrArArUrGrUrCrAdAdA” is higher in normalised inhibition (eCFP-eYFP dual reporter): 32.2% for the first, 115% for the second.

molecular target: UBE2H; assay: reporter assay of Huesken 2005; details: siRNA

First: sense rArCrGrCrCrArCrGrGrArGrGrArGrGrCrGrCrUdTdT / antisense rArGrCrGrCrCrUrCrCrUrCrCrGrUrGrGrCrGrUdAdT
Second: sense rGrArGrUrArCrArUrCrCrArGrArArArUrArCrGdTdT / antisense rCrGrUrArUrUrUrCrUrGrGrArUrGrUrArCrUrCdTdT
The normalised inhibition (eCFP-eYFP dual reporter) of the first is lower: 71.9% for the first, 77.6% for the second.

First: sense rArUrArGrGrArUrUrCrArUrGrArArUrArArArAdTdT / antisense rUrUrUrUrArUrUrCrArUrGrArArUrCrCrUrArUdAdG
Second: sense rCrArUrGrArArUrArArArArUrUrUrUrCrCrArUdTdT / antisense rArUrGrGrArArArArUrUrUrUrArUrUrCrArUrGdAdA
The normalised inhibition (eCFP-eYFP dual reporter) of the first is higher: 106% for the first, 64% for the second.

First: sense rCrArGrArArGrArArUrArCrArArGrCrArGrArAdTdT / antisense rUrUrCrUrGrCrUrUrGrUrArUrUrCrUrUrCrUrGdGdT
Second: sense rArCrArGrCrUrCrUrCrUrArUrGrArUrCrUrUrAdTdT / antisense rUrArArGrArUrCrArUrArGrArGrArGrCrUrGrUdCdC
The normalised inhibition (eCFP-eYFP dual reporter) of the first is lower: 77.7% for the first, 95.8% for the second.

Compared with “sense rArGrGrGrUrArCrCrGrGrGrGrArCrArGrCrUrCdTdT / antisense rGrArGrCrUrGrUrCrCrCrCrGrGrUrArCrCrCrUdCdT”, “sense rGrArArUrUrUrGrUrArGrUrGrArArGrUrUrUrUdTdT / antisense rArArArArCrUrUrCrArCrUrArCrArArArUrUrCdAdT” is higher in normalised inhibition (eCFP-eYFP dual reporter): 77.2% for the first, 96.7% for the second.

First: sense rCrUrArUrGrArUrCrUrUrArCrCrArArUrArUrAdTdT / antisense rUrArUrArUrUrGrGrUrArArGrArUrCrArUrArGdAdG
Second: sense rUrCrArUrCrGrArGrArGrUrArArArCrArUrGrAdTdT / antisense rUrCrArUrGrUrUrUrArCrUrCrUrCrGrArUrGrAdGdC
The normalised inhibition (eCFP-eYFP dual reporter) of the first is higher: 110% for the first, 71.5% for the second.

Going from “sense rCrUrUrGrGrArCrArGrCrUrCrUrCrUrArUrGrAdTdT / antisense rUrCrArUrArGrArGrArGrCrUrGrUrCrCrArArGdTdT” to “sense rArArGrUrUrArGrArGrUrGrGrArCrCrUrArCrCdTdT / antisense rGrGrUrArGrGrUrCrCrArCrUrCrUrArArCrUrUdTdC”, the normalised inhibition (eCFP-eYFP dual reporter) falls from 81% to 64.2%.

Going from “sense rUrUrArUrGrGrArCrCrArCrArArGrGrArArCrAdTdT / antisense rUrGrUrUrCrCrUrUrGrUrGrGrUrCrCrArUrArAdAdA” to “sense rUrGrUrArGrUrGrArArGrUrUrUrUrArUrGrGrAdTdT / antisense rUrCrCrArUrArArArArCrUrUrCrArCrUrArCrAdAdA”, the normalised inhibition (eCFP-eYFP dual reporter) falls from 91.7% to 75.6%.

Going from “sense rCrArUrCrGrArGrArGrUrArArArCrArUrGrArGdTdT / antisense rCrUrCrArUrGrUrUrUrArCrUrCrUrCrGrArUrGdAdG” to “sense rGrArArUrArCrArArGrCrArGrArArArArUrUrAdTdT / antisense rUrArArUrUrUrUrCrUrGrCrUrUrGrUrArUrUrCdTdT”, the normalised inhibition (eCFP-eYFP dual reporter) rises from 70.2% to 93.1%.

Compared with “sense rArGrUrGrGrArCrCrUrArCrCrUrGrArUrArArAdTdT / antisense rUrUrUrArUrCrArGrGrUrArGrGrUrCrCrArCrUdCdT”, “sense rCrCrUrArArCrCrCrCrArUrArGrArUrCrCrUrCdTdT / antisense rGrArGrGrArUrCrUrArUrGrGrGrGrUrUrArGrGdAdT” is lower in normalised inhibition (eCFP-eYFP dual reporter): 108% for the first, 66.9% for the second.

First: sense rCrCrArGrArArGrArArUrArCrArArGrCrArGrAdTdT / antisense rUrCrUrGrCrUrUrGrUrArUrUrCrUrUrCrUrGrGdTdC
Second: sense rGrGrArGrGrArGrGrCrGrCrUrGrArArArGrArAdTdT / antisense rUrUrCrUrUrUrCrArGrCrGrCrCrUrCrCrUrCrCdGdT
The normalised inhibition (eCFP-eYFP dual reporter) of the first is higher: 104% for the first, 91.9% for the second.

Going from “sense rCrArGrGrArArGrArGrGrGrUrArCrCrGrGrGrGdTdT / antisense rCrCrCrCrGrGrUrArCrCrCrUrCrUrUrCrCrUrGdTdT” to “sense rCrCrGrArCrCrArGrArArGrArArUrArCrArArGdTdT / antisense rCrUrUrGrUrArUrUrCrUrUrCrUrGrGrUrCrGrGdTdG”, the normalised inhibition (eCFP-eYFP dual reporter) rises from 74.7% to 86.4%.

First: sense rArUrUrUrGrArGrUrCrCrUrUrCrCrUrGrCrCrUdTdT / antisense rArGrGrCrArGrGrArArGrGrArCrUrCrArArArUdAdT
Second: sense rGrArUrArArArUrArCrCrCrUrUrUrCrArArArUdTdT / antisense rArUrUrUrGrArArArGrGrGrUrArUrUrUrArUrCdAdG
The normalised inhibition (eCFP-eYFP dual reporter) of the first is lower: 48.2% for the first, 102% for the second.

Going from “sense rArUrArCrCrCrUrUrUrCrArArArUrCrUrCrCrAdTdT / antisense rUrGrGrArGrArUrUrUrGrArArArGrGrGrUrArUdTdT” to “sense rUrArUrArGrGrArUrUrCrArUrGrArArUrArArAdTdT / antisense rUrUrUrArUrUrCrArUrGrArArUrCrCrUrArUrAdGdA”, the normalised inhibition (eCFP-eYFP dual reporter) falls from 99.2% to 67.9%.

First: sense rGrGrGrUrArCrCrGrGrGrGrArCrArGrCrUrCrAdTdT / antisense rUrGrArGrCrUrGrUrCrCrCrCrGrGrUrArCrCrCdTdC
Second: sense rArArArArUrUrArArArGrArGrUrArCrArUrCrCdTdT / antisense rGrGrArUrGrUrArCrUrCrUrUrUrArArUrUrUrUdCdT
The normalised inhibition (eCFP-eYFP dual reporter) of the first is higher: 71.9% for the first, 70.5% for the second.

Going from “sense rArUrCrUrArUrArGrGrArUrUrCrArUrGrArArUdTdT / antisense rArUrUrCrArUrGrArArUrCrCrUrArUrArGrArUdGdG” to “sense rCrCrArCrCrGrArCrCrArGrArArGrArArUrArCdTdT / antisense rGrUrArUrUrCrUrUrCrUrGrGrUrCrGrGrUrGrGdAdG”, the normalised inhibition (eCFP-eYFP dual reporter) falls from 95.3% to 82.5%.

Going from “sense rArGrGrUrUrArCrGrArUrCrCrUrGrGrGrArGrGdTdT / antisense rCrCrUrCrCrCrArGrGrArUrCrGrUrArArCrCrUdCdA” to “sense rArArCrArCrCrArUrArUrGrArArGrGrCrGrGrAdTdT / antisense rUrCrCrGrCrCrUrUrCrArUrArUrGrGrUrGrUrUdCdC”, the normalised inhibition (eCFP-eYFP dual reporter) falls from 84.1% to 67.8%.

First: sense rUrCrArGrUrUrArUrUrGrGrCrCrUrArUrCrCrUdTdT / antisense rArGrGrArUrArGrGrCrCrArArUrArArCrUrGrAdGdG
Second: sense rArCrUrUrGrGrArCrArGrCrUrCrUrCrUrArUrGdTdT / antisense rCrArUrArGrArGrArGrCrUrGrUrCrCrArArGrUdTdT
The normalised inhibition (eCFP-eYFP dual reporter) of the first is lower: 66.6% for the first, 86% for the second.

Going from “sense rUrArGrArUrGrUrArArUrUrArArUrCrArArArCdTdT / antisense rGrUrUrUrGrArUrUrArArUrUrArCrArUrCrUrAdGdA” to “sense rUrGrUrArCrCrUrCrCrArCrCrGrArCrCrArGrAdTdT / antisense rUrCrUrGrGrUrCrGrGrUrGrGrArGrGrUrArCrAdTdG”, the normalised inhibition (eCFP-eYFP dual reporter) rises from 46.5% to 95.7%.

Going from “sense rArArArGrUrUrArGrArGrUrGrGrArCrCrUrArCdTdT / antisense rGrUrArGrGrUrCrCrArCrUrCrUrArArCrUrUrUdCdC” to “sense rArGrGrArArCrUrGrUrGrUrGrUrCrUrArGrArUdTdT / antisense rArUrCrUrArGrArCrArCrArCrArGrUrUrCrCrUdGdA”, the normalised inhibition (eCFP-eYFP dual reporter) rises from 50% to 100%.

Compared with “sense rUrGrArUrCrUrUrArCrCrArArUrArUrArUrUrUdTdT / antisense rArArArUrArUrArUrUrGrGrUrArArGrArUrCrAdTdA”, “sense rArArArUrCrUrCrCrArUrCrUrArUrArGrGrArUdTdT / antisense rArUrCrCrUrArUrArGrArUrGrGrArGrArUrUrUdGdA” is higher in normalised inhibition (eCFP-eYFP dual reporter): 68.4% for the first, 96.4% for the second.

Going from “sense rCrCrArUrArUrGrArArGrGrCrGrGrArGrUrArUdTdT / antisense rArUrArCrUrCrCrGrCrCrUrUrCrArUrArUrGrGdTdG” to “sense rCrGrArGrArGrUrArArArCrArUrGrArGrGrUrUdTdT / antisense rArArCrCrUrCrArUrGrUrUrUrArCrUrCrUrCrGdAdT”, the normalised inhibition (eCFP-eYFP dual reporter) falls from 102% to 98%.

Going from “sense rGrArCrGrCrUrGrCrArGrCrCrArUrGrUrArCrCdTdT / antisense rGrGrUrArCrArUrGrGrCrUrGrCrArGrCrGrUrCdAdC” to “sense rCrGrUrCrArGrGrArArCrUrGrUrGrUrGrUrCrUdTdT / antisense rArGrArCrArCrArCrArGrUrUrCrCrUrGrArCrGdCdT”, the normalised inhibition (eCFP-eYFP dual reporter) rises from 55.3% to 99.9%.

Compared with “sense rGrArGrUrArUrGrGrArArArGrUrUrArGrArGrUdTdT / antisense rArCrUrCrUrArArCrUrUrUrCrCrArUrArCrUrCdCdG”, “sense rGrGrUrGrArCrGrCrUrGrCrArGrCrCrArUrGrUdTdT / antisense rArCrArUrGrGrCrUrGrCrArGrCrGrUrCrArCrCdAdT” is higher in normalised inhibition (eCFP-eYFP dual reporter): 83.6% for the first, 91% for the second.

First: sense rGrArArCrUrGrUrGrUrGrUrCrUrArGrArUrGrUdTdT / antisense rArCrArUrCrUrArGrArCrArCrArCrArGrUrUrCdCdT
Second: sense rCrArGrCrCrArUrGrUrArCrCrUrCrCrArCrCrGdTdT / antisense rCrGrGrUrGrGrArGrGrUrArCrArUrGrGrCrUrGdCdA
The normalised inhibition (eCFP-eYFP dual reporter) of the first is higher: 98.4% for the first, 61.4% for the second.
